Test results: patent US11993640B2, “Treating inflammatory lung disease” (United States Government as represented by the Department …, priority 2019, dated 2024)
“Also recorded” adds a separate entry of the source. Blank lines part the entries; values can stand above or below the compound they belong to. Non-standard residues stand in square brackets, D forms with d. Residues, ends and D or L forms follow the SMILES beside them. *: point of attachment. Phenylacetyl(2,3,4,5,6-F5) = O=C(Cc1c(F)c(F)c(F)c(F)c1F)*; Phe(F5) = N[C@@H](Cc1c(F)c(F)c(F)c(F)c1F)C(=O)O; Phe(4-Cl) = N[C@@H](Cc1ccc(Cl)cc1)C(=O)O; hArg = N=C(N)NCCCC[C@H](N)C(=O)O; 12Ado = NCCCCCCCCCCCC(=O)O; Nle = CCCC[C@H](N)C(=O)O; Orn = NCCC[C@H](N)C(=O)O; Abu = CC[C@H](N)C(=O)O

What was measured:
[1] = system: HCC827 cells; assay: In vitro cell viability, lung cancer HCC827; format: cell-based, human; conditions: 5 μM, 72 h; relative to MIA602 = 1; Table 3A
Method: (§1) The inhibitory effects of the various synthesized GHRH antagonists were tested in cell proliferation assays in various human cancer cell lines including stomach cancer (KATOIII, N87), colon cancer (HT-29), urothelial cancer (J82, RT4), pancreatic cancer (PANC-1, CFPAC-1), prostatic cancer (PC3), breast cancer (MX-1, HCC1806), ovarian cancer (SK-OV-3, OVCAR-3) and lung cancer (HCC827, H460).
(§2) Cell culture. Human cancer cell lines including pancreatic (PANC-1 and CFPAC-1), lung (HCC827 and H460), stomach (NCI-N87 and KATOIII), urothelial (J82, RT4), prostatic (PC3), breast (MX-1 and HCC 1806), colorectal (HT-29), and ovarian (SK-OV-3 and OVCAR-3) were obtained from the American Type Culture Collection (ATCC) and cultured at 37° C. in a humidified 95% air/5% CO2 atmosphere in the medium recommended by ATCC.
(§3) In vitro cell viability. Cell viability was analyzed as follows: cancer cells including pancreatic (PANC-1 and CFPAC-1), lung (HCC827 and H460), stomach (NCI-N87 and KATOIII), urothelial (J82, RT4), prostatic (PC3) and breast (MX-1 and HCC 1806), colorectal (HT-29) and ovarian (SK-OV-3 and OVCAR-3) were grown on 96 well plates to ˜60% confluence, the cells were starved for 24 h in culture medium containing 0.5% FBS. Cells were then treated with GHRH antagonists MIA602 AVR compounds at concentrations of 1, 2.5 or 5 μM, or vehicle (0.1% DMSO) in quintuplicates for 72 hours. The medium was replaced every 48 hours. Cell viability was measured using CellTiter 96 aqueous one solution kit (Promega). Inhibitory effects of tested AVR compounds in comparison to that of MIA602 are presented as inhibitory potency.
(§4) Inhibitory effects of selected AVR compounds in comparison to that of MIA602 are presented as inhibitory potency (e.g., percentage of inhibition). […] The cell lines tested including lung cancer HCC827 (FIG. 2A), pancreatic cancer CFPAC-1 (FIG. 2B), stomach cancer N87 (FIG. 2C), colon cancer HT-29 (FIG. 2D), breast cancers MX-1 and HCC1806 (FIGS. 2E, F). Based on the results of cell proliferation assay after cancer cells were treated with antagonist at concentration of 5 μM for 72H, the relative inhibitory potency of AVR antagonists in comparison to MIA-602 is summarized in Table 3 A and B. Over 60 AVR compounds were tested in 12 cancer cell lines.
(§5) Based on the results of cell proliferation assay after cancer cells were treated with antagonist at concentration of 5 µM for 72H, * at concentration of 2 µM for 72 H.

[2] = system: CFPAC-1 cells; assay: In vitro cell viability, pancreatic cancer CFPAC-1; format: cell-based, human; conditions: 5 μM, 72 h; relative to MIA602 = 1; Table 3A
Method: as §1, §2, §3, §4, §5

[3] = biological target: T1, membrane GHRH-receptors on human anterior pituitary cells (Homo sapiens, UniProt Q02643); assay: Competitive receptor binding, displacement of 125I-[His1,Nle27]-hGH-RH(1-32)NH2 from human pituitary membranes
T1 construct: Human pituitary was purchased from the National Hormone and Peptide Program; tissue National Hormone and Peptide Program; host or cells: human pituitary membrane fractions
T1 sequence (Q02643 23-423): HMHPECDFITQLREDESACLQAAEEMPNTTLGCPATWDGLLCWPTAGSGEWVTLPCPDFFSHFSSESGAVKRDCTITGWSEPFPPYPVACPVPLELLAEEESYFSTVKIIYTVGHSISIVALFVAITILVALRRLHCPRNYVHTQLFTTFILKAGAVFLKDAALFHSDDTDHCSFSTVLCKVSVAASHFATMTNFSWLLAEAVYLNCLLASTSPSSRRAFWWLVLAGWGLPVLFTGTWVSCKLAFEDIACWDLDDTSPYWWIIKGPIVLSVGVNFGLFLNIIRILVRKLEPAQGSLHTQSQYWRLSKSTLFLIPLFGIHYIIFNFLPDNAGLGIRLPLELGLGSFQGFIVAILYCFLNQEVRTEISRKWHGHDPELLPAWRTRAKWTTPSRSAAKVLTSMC
Method: Receptor binding affinities in vitro. Preparation of human pituitary membrane fractions and receptor binding of analogs of GH-RH were performed (Halmos G, Rekasi Z, Szoke B, Schally A V. (1993) Receptor 3:87-97). Human pituitary was purchased from the National Hormone and Peptide Program. […] Relative affinities compared to hGH-RH(1-29)NH2 were calculated as the ratio of IC50 (dose causing 50% inhibition of specific binding to receptors) of the tested peptides to the IC50 of hGH-RH(1-29)NH2. The values were calculated from technical duplicate tubes.
Nineteen new AVR analogs of GHRH were tested in the receptor binding assay. Table 6 presents the IC50 values of GHRH antagonists to membrane GHRH-receptors binding on human anterior pituitary cells.

- IC50 ([3]; human anterior pituitary membranes, mean of two to three determinations, read-out: IC50): 210 pM
SMILES: CCCC[C@H](NC(=O)[C@@H](NC(=O)[C@H](CC(=O)O)NC(=O)[C@H](CCC(N)=O)NC(=O)[C@H](CC(C)C)NC(=O)[C@H](CC(C)C)NC(=O)[C@H](CCCN)NC(=O)[C@H](Cc1c[nH]cn1)NC(=O)[C@H](C)NC(=O)[C@H](CO)NC(=O)[C@H](CC(C)C)NC(=O)[C@H](CCC(N)=O)NC(=O)[C@H](CC)NC(=O)[C@H](CC(C)C)NC(=O)[C@@H](NC(=O)[C@H](CCCN)NC(=O)[C@H](Cc1c[nH]cn1)NC(=O)[C@H](Cc1c(F)c(F)c(F)c(F)c1F)NC(=O)[C@H](CCCCNC(=N)N)NC(=O)[C@H](C)NC(=O)[C@@H](NC(=O)[C@H](Cc1ccc(Cl)cc1)NC(=O)[C@@H](NC(=O)[C@H](C)NC(=O)[C@H](CC(=O)O)NC(=O)[C@@H](CCCNC(=N)N)NC(=O)[C@H](Cc1ccc(O)cc1)NC(=O)CCCCCCCCCCCNC(=O)Cc1c(F)c(F)c(F)c(F)c1F)[C@@H](C)CC)[C@@H](C)O)C(C)C)[C@@H](C)CC)C(=O)N[C@H](CCCNC(=N)N)C(=O)N[C@@H](CCCCNC(=N)N)C(=O)NC [AVR-542, 5FPhAC-Ada-Tyr-DArg-Asp-Ala-Ile-Cpa-Thr-Ala-Har-5FPhe-His-Orn-Val-Leu-Abu-Gln-Leu-Ser-Ala-His-Orn-Leu-Leu-Gln-Asp-Ile-Nle-DArg-Har-NHCH3] ({Phenylacetyl(2,3,4,5,6-F5)-12Ado}-Y[dR]DAI[Phe(4-Cl)]TA[hArg][Phe(F5)]H[Orn]VL[Abu]QLSAH[Orn]LLQDI[Nle][dR][hArg]-NHMe)
- Relative inhibitory potency, Lung HCC827 [1]: 2.649
- Relative inhibitory potency, Pancreatic CFPAC-1 [2]: 1.312

SMILES: CCCC[C@H](NC(=O)[C@@H](NC(=O)[C@H](CC(=O)O)NC(=O)[C@H](CCC(N)=O)NC(=O)[C@H](CC(C)C)NC(=O)[C@H](CC(C)C)NC(=O)[C@H](CCCN)NC(=O)[C@H](Cc1c[nH]cn1)NC(=O)[C@H](C)NC(=O)[C@H](CO)NC(=O)[C@H](CC(C)C)NC(=O)[C@H](CCC(N)=O)NC(=O)[C@H](CC)NC(=O)[C@H](CC(C)C)NC(=O)[C@@H](NC(=O)[C@H](CCCN)NC(=O)[C@H](Cc1c[nH]cn1)NC(=O)[C@H](Cc1c(F)c(F)c(F)c(F)c1F)NC(=O)[C@H](CCCCNC(=N)N)NC(=O)[C@H](C)NC(=O)[C@@H](NC(=O)[C@H](Cc1ccc(Cl)cc1)NC(=O)[C@@H](NC(=O)[C@H](C)NC(=O)[C@H](CC(=O)O)NC(=O)[C@@H](CCCNC(=N)N)NC(=O)[C@H](Cc1ccc(O)cc1)NC(=O)CCCCCCCCCCCNC(=O)Cc1c(F)c(F)c(F)c(F)c1F)[C@@H](C)CC)[C@@H](C)O)C(C)C)[C@@H](C)CC)C(=O)N[C@H](CCCNC(=N)N)C(=O)N[C@@H](CCCCNC(=N)N)C(=O)NCCCCCCCCCCCC(N)=O [AVR-552, 5FPhAC-Ada-Tyr-DArg-Asp-Ala-Ile-Cpa-Thr-Ala-Har-5FPhe-His-Orn-Val-Leu-Abu-Gln-Leu-Ser-Ala-His-Orn-Leu-Leu-Gln-Asp-Ile-Nle-DArg-Har-Ada-NH2] ({Phenylacetyl(2,3,4,5,6-F5)-12Ado}-Y[dR]DAI[Phe(4-Cl)]TA[hArg][Phe(F5)]H[Orn]VL[Abu]QLSAH[Orn]LLQDI[Nle][dR][hArg][12Ado]-NH2)
- Relative inhibitory potency, Lung HCC827 [1]: 4.376
- Relative inhibitory potency, Pancreatic CFPAC-1 [2]: 1.57
- Binding affinity to membrane receptors of human pituitary cells [3]: higher binding affinity in comparison to MIA-602; also recorded: highest binding affinities

SMILES: CCCC[C@H](NC(=O)[C@@H](NC(=O)[C@H](CC(=O)O)NC(=O)[C@H](CCC(N)=O)NC(=O)[C@H](CC(C)C)NC(=O)[C@H](CC(C)C)NC(=O)[C@H](CCCN)NC(=O)[C@H](Cc1c[nH]cn1)NC(=O)[C@H](C)NC(=O)[C@H](CO)NC(=O)[C@H](CC(C)C)NC(=O)[C@H](CCC(N)=O)NC(=O)[C@H](CC)NC(=O)[C@H](CC(C)C)NC(=O)[C@@H](NC(=O)[C@H](CCCN)NC(=O)[C@H](Cc1c[nH]cn1)NC(=O)[C@H](Cc1ccc(OC)cc1)NC(=O)[C@H](CCCCNC(=N)N)NC(=O)[C@H](C)NC(=O)[C@@H](NC(=O)[C@H](Cc1c(F)c(F)c(F)c(F)c1F)NC(=O)[C@@H](NC(=O)[C@H](C)NC(=O)[C@H](CC(=O)O)NC(=O)[C@@H](CCCNC(=N)N)NC(=O)[C@H](Cc1ccc(O)cc1)NC(=O)CCCCCCCCCCCNC(=O)Cc1c(F)c(F)c(F)c(F)c1F)[C@@H](C)CC)[C@@H](C)O)C(C)C)[C@@H](C)CC)C(=O)N[C@H](CCCNC(=N)N)C(=O)N[C@@H](CCCCNC(=N)N)C(=O)NCCCCCCCCCCCC(N)=O [AVR-553, 5FPhAC-Ada-Tyr-DArg-Asp-Ala-Ile-5FPhe-Thr-Ala-Har-Tyr(Me)-His-Orn-Val-Leu-Abu-Gln-Leu-Ser-Ala-His-Orn-Leu-Leu-Gln-Asp-Ile-Nle-DArg-Har-Ada-NH2] ({Phenylacetyl(2,3,4,5,6-F5)-12Ado}-Y[dR]DAI[Phe(F5)]TA[hArg]Y(Me)H[Orn]VL[Abu]QLSAH[Orn]LLQDI[Nle][dR][hArg][12Ado]-NH2)
- Binding affinity to membrane receptors of human pituitary cells [3]: higher binding affinity in comparison to MIA-602; also recorded: highest binding affinities
